The METLIN SMRT retention time set (Domingo-Almenara et al. 2019)

Assay: gradient 5% acetonitrile 3 min, to 50% in 2 min, to 85% in 15 min, held 3 min, 100 µL/min
Details: column: Zorbax Extend-C18 2.1 x 50 mm; eluents: water / acetonitrile, 0.1% formic acid
Outline: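 Using water and acetonitrile that each contained 0.1% formic acid, mixtures of ~100 pure standards were separated at 100 μL/min on a Zorbax Extend-C18 column (2.1 × 50 mm, 1.8 μm). The HPLC fed a quadrupole time-of-flight mass spectrometer working in positive and negative ionization mode, with dead and dwell volumes of 40 μL and 900 μL. Data were acquired over 3 months. Retention time was read from computationally picked adduct peaks after manual inspection of each.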

Compound	RP-LC retention time [s]
Cc1ccc(NC(=O)c2cc(C(C)C)n3nccc3n2)cc1	1140
O=C(NC1CCCCCC1)C1CCN(c2cncnc2N2CCCCC2)CC1	712
O=C(C1CCN(c2ncccc2-c2nc(-c3cccc(Cl)c3)no2)CC1)N1CCOCC1	982
Fc1cccc(-c2nnc(C(c3cccc(Cl)c3)N3CCN(c4ccccn4)CC3)o2)c1 (configuration not stated)	774
O=c1[nH]c2ccc(O)cc2o1	563
Cc1ccc(F)cc1NS(=O)(=O)c1cn(CC(C)C)c2ncccc12	993
O=C(c1ccc[nH]1)N1CCN(C(=O)c2nnn3c2COC(c2ccc(Cl)cc2)C3)CC1 (configuration not stated)	839
CCc1nc2cc(-c3noc(COc4ccc(Cl)cc4)n3)ccc2o1	1170
Cc1nn2c(S(=O)(=O)N3CCOCC3)c(C)nc2s1	656
O=C([C@@H]1C[C@H](F)CN1C(=O)c1ccoc1)N1CCCCC1	576
CSc1cccc(NC(=O)c2cn3c(n2)CSCC3)c1	763
CCOc1ccc(-c2noc(Cc3nc(-c4cccc(OC)c4)cs3)n2)cc1	1230
Cc1ccc2c(c1)N(C(=O)Cn1cc(-c3noc(-c4ccncc4)n3)nc1C)CCO2	735
CCNc1cc(C)nc(N2CCN(C(=O)CC(C)C)CC2)n1	613
Cc1cc(C)cc(NC(=O)Nc2nccn(-c3ccc4c(c3)CCC4)c2=O)c1	1210
O=C(Nc1cc(F)ccc1F)c1ccc(=O)n(Cc2cccc(C(F)(F)F)c2)c1	861
CN(CC1CCOC1)C(=O)c1cccc(Cl)c1 (configuration not stated)	672
O=C(CC(c1cccs1)N1Cc2ccccc2C1=O)N1CCN(c2ccccn2)CC1 (configuration not stated)	632
CCc1nc2cc3c(cc2n1CC(=O)N1CCCCC1)OCCO3	600

Compound	RP-LC retention time [s]
Cc1ccc(Nc2c(-c3ccc(O)cc3)nc3ncccn23)cc1Cl	690
CC(NC(=O)C(=O)c1c[nH]c2ccccc12)c1ccccc1 (configuration not stated)	924
O=S(=O)(c1cccn2c(SCc3ccc(F)cc3Cl)nnc12)N1CCCCC1	879
Cc1ccc(C)c(Cn2nnc(C(=O)O)c2-c2ccncc2)c1	650
Cc1ccc(S(=O)(=O)N2CCC(n3c(-c4ccco4)nc4cccnc43)C2)cc1F (configuration not stated)	954
C=CCSC(CC)(CC)C(N)=O	805
Cc1cccc(NC(=O)c2cnc3c(c2)c(=O)n(C)c(=O)n3-c2ccc(F)cc2)c1	904
Cc1cc(C(F)F)n2nc(C(=O)Nc3ccc(F)cc3C)nc2n1	811
O=C(O)c1cc(-c2c[nH]c3ccccc23)nc2ccccc12	624
O=C(Cc1nc(-c2ccccn2)n[nH]1)Nc1ccc(F)c(F)c1	651
O=C(Nc1nc2ccccc2s1)C1CCN(C(=O)c2ccccc2Cl)CC1	829
Cc1cc(C)n(-c2nc(CC(=O)Nc3nc(-c4ccccc4)cs3)cs2)n1	1120
CCN1CCN(c2nccc(-c3cnc4nc(-c5cccnc5)nn4c3C)n2)CC1	574
CN1C(=O)[C@H]2CN(Cc3ccccc3)C[C@H]2C1=O	546
O=C(Nc1cnc(N2CCCC2)nc1)c1ccc(F)c(F)c1	748
CC(C)n1cc(S(=O)(=O)N2CCN(c3cccc(Cl)c3)CC2)c2cccnc21	761
Cc1ccc(Nc2c(-c3cccc(O)c3)nc3cnccn23)cc1Br	834
N#Cc1ccccc1NC(=O)Cc1ccc2c(c1)OCO2	710

Further lines, results first:

RP-LC retention time [s]	Compound
670	CCOC(=O)c1[nH]c(C)c(CCC(=O)N2CCC(C(=O)NCC3CCCO3)CC2)c1C (configuration not stated)
592	COCC1CN(C2CCC2)CC12CCN(C(=O)c1ccsc1)CC2 (configuration not stated)
1060	Cc1cc(C)cc(NC(=O)C2CCN(S(=O)(=O)c3c(C)nn(-c4ccccc4)c3C)CC2)c1
683	CCC(C)NC(=O)C1CCN(S(=O)(=O)c2c(C)nn(-c3ccc(C)cc3)c2C)CC1 (configuration not stated)
550	Cc1nnc2n1CCC(NC(=O)Cc1cccs1)CC2 (configuration not stated)
910	Cc1ccccc1CC(=O)Nc1ccc2c(c1)CCC(=O)N2CC(C)C
712	O=C(COc1ccc(F)cc1)Nc1ccc2c(c1)N(C(=O)c1ccco1)CCC2
660	CCN(CCN(C)C)C(=O)c1cc2c(s1)-c1ccc(Cl)cc1S(=O)(=O)C2
958	CCOc1ccc(NC(=O)c2noc3c2CCCC3)cc1
615	COc1cccc(-c2noc(C3CCCN3C(=O)NCc3ccco3)n2)c1 (configuration not stated)
781	CC(C)CNC(=O)C1CC(=O)N(CCc2c[nH]c3ccc(Cl)cc23)C1 (configuration not stated)
841	CCN(CC)C(=O)Cn1nc2cc(C)nc(-c3ccc(C(F)(F)F)cc3)n2c1=O
819	Cc1ccc(CNC(=O)C2(C)Cn3cnc(C(=O)NC4CCCCC4)c3C(=O)N2C2CC2)cc1 (configuration not stated)
812	COc1cccc(NC(=O)Cn2nc3c(Oc4ccc(F)cc4)nccn3c2=O)c1
948	Cc1ccc2c(c1)cc(S(=O)(=O)c1ccccc1)c(=O)n2CC(=O)NCc1ccccc1Cl
583	CC1CCCCN1C(=O)Cn1c(CCO)nc2ccccc21 (configuration not stated)
796	CCc1noc(NC(C)=O)c1-c1ccc(OC)c(S(=O)(=O)Nc2ccc(F)cc2C)c1
602	NC(=O)C1CCN(C(=O)CCCc2nc3cccnc3n2Cc2ccc(F)cc2)CC1
906	CCOC(=O)C1=CN(CC(=O)NCc2ccc(Cl)cc2)S(=O)(=O)N=C1C
868	COc1ccc(CNC(=O)CN2C(=O)CSc3cccn3-c3ccccc32)c(OC)c1
655	O=C(Nc1ccccc1F)c1cc(C2CC2)on1
788	CCCN(CC1CCOC1)C(=O)c1ccccc1Cl (configuration not stated)
625	CC1CCN(c2ncc3c(n2)CCC(C(=O)NCc2nc4ccccc4n2C)C3)CC1 (configuration not stated)
798	O=C(NCc1ccc(F)cc1F)c1ccc(NC(=O)C2CC2)cc1N1CCOCC1
861	O=C(NCCC1CCN(C(=O)Nc2cc(F)cc(F)c2)CC1)c1cccs1
840	CCc1ccc(NC(=O)C2CCN(S(=O)(=O)c3cn(C(C)C)cn3)CC2)cc1
678	CCn1cnc(S(=O)(=O)N2CCC(C(=O)N3CCC(C)CC3)CC2)c1
587	CSc1cccc(NC(=O)Cn2c(C)nc3c(c2=O)CN(Cc2ccccc2)CC3)c1

RP-LC retention time [s]	Compound
698	COc1ccc(N2CCN(CC(O)COc3c(C)cccc3C)CC2)cc1 (configuration not stated)
888	Cc1cccc(Sc2nccnc2N2CCC(C(=O)NCC3CCCO3)CC2)c1 (configuration not stated)
1070	O=C(NCc1cccs1)C1CCCN(S(=O)(=O)c2cc(-c3noc(C4CCC4)n3)cs2)C1 (configuration not stated)
649	Cc1ccc(NC(=O)N(CCc2cccs2)Cc2cccnc2)cc1C
890	CCN1C(=O)C(C)(C(=O)NCc2ccccc2Cl)Oc2cccnc21 (configuration not stated)
696	O=C(c1cc(=O)c(OCc2ccc(F)cc2)co1)N1CCN(c2ncccn2)CC1
584	Cc1ccc(N2CCC(N)C2=O)cc1C (configuration not stated)
930	COc1ccc(OCC(=O)N2CCCC2c2nc(-c3ccccc3)no2)cc1 (configuration not stated)
686	COc1ccc(CSc2nccc3c2ccn3CC(=O)NCc2ccco2)cc1
893	COCCCN1C(=O)CSc2c(c3ccccc3n2C)C1C(=O)NCc1ccc(F)cc1 (configuration not stated)
711	CNC(=O)C1CCCN(c2nc3ncn(CC(=O)Nc4ccc(C(F)(F)F)cc4)c(=O)c3s2)C1 (configuration not stated)
829	Cc1cc(C)n(-c2ccnc(NCc3ccc(F)cc3)n2)n1
1170	COc1cccc(CNC(=O)Nc2ccc(-c3nc(-c4ccc(C)cc4C)co3)cc2)c1
713	CC(C(=O)NCCN1CCCCCC1)n1c(=O)c(C(F)(F)F)nc2ccccc21 (configuration not stated)
684	CCCN(CC1CCOC1)C(=O)Nc1cccc(F)c1 (configuration not stated)
740	COc1ccc(CCNC(=O)CN2C(=O)NC3(CCC(C)CC3)C2=O)cc1OC (configuration not stated)
704	CN(CC1CCOC1)C(=O)c1cc(F)ccc1Cl (configuration not stated)
771	CNC(=O)C1CCN(c2nc3ccc(-c4ccc(OC)cc4)nc3s2)CC1
828	COc1cc(-c2nnc(C)o2)ccc1C
853	CN1C(=O)c2cc(C(=O)NCCC3=CCCCC3)nn2CC1(C)C(=O)NCc1ccccc1 (configuration not stated)
1110	CCOC(=O)O[C@]1(C(=O)OCCl)CCC2[C@@H]3CCC4=CC(=O)C=C[C@]4(C)C3[C@@H](O)C[C@@]21C (some centres not stated)
831	CCc1ccc(NC(=O)C2CC(=O)N(CCc3c[nH]c4ccc(OC)cc34)C2)cc1 (configuration not stated)
664	Cc1ccc(-n2nnnc2CN2CCN(C(=O)CSc3nnnn3C)CC2)cc1
849	Cc1cc2c(cc1CNC(=O)Cn1c(C(F)(F)F)nc3ccccc31)OCCCO2
661	CC1CCCN(CC2CCN(C(=O)Nc3ccc(Br)cc3)CC2)C1 (configuration not stated)
812	CC(C)N1C(=O)c2cccnc2Sc2cc(C(=O)NC3CCCC3)ccc21
718	Cc1ccc(NC(=O)CN2CCC(c3nc(-c4cccs4)no3)CC2)c(C)c1
